The values that follow come from patent US7109236B2, “Analogs of green tea polyphenols as chemotherapeutic and chemopreventive agents” (SRI International, priority 2002, dated 2006).

By IC50 is commonly meant the concentration at which inhibition is half-maximal. Low values mean higher potency, high ones lower potency. Usually Papp stands for the rate of passage across a membrane or cell layer, normalised by area and donor concentration. What is called inhibition is the percentage by which the read-out fell short of the control. A higher inhibition goes with strong suppression.

A value given as a limit tells only on which side of the number the result lay.

Series [1] relates to MCF-7 (ER+). Kind of series: MTT growth inhibition assay, MCF-7 breast cancer cells. Format: cell-based. The method, then:
(§1) Compounds of the invention were tested for their ability to inhibit growth in two breast cancer cell lines, MCF-7 (ER+) and MDA-MB-231 (ER−).
(§2) The growth inhibition assays were conducted using routine methods. Briefly, the cells were seeded in 24-well plates at a density of 2000 cells per well in 200 μL of […] growth medium. To each well was added 10 μL of DMSO containing the dissolved test compound; final DMSO concentration in each well was not more than 0.5%. Each test compound was assayed at concentrations of 0.4, 2, 10, and 50 μM. The plates were incubated for eight days, with the media and test solutions replaced every third day. On Day 8, the viable cells were measured by the MTT assay, as described in Mosmann et al. (1983), “Rapid Colorimetric Assay for Cellular Growth and Survival: Application to Proliferation and Cytotoxicity,” J. Immunol. Method. 65:55–63. The optical density at 575 nm of each test well was measured and compared to that for control wells, and the data used to calculate the percentage of growth inhibition at different concentrations. The IC50 value (the concentration of growth inhibitor that results in 50% growth inhibition of the cells in culture relative to control cells not exposed to any growth inhibitor) was determined by plotting dose-response curves.
(§3) The calculated IC50 values are set forth in Table 1, with the results representing the average of at least two experiments conducted for each compound at each of the four concentrations.
(§4) The foregoing procedures were repeated with additional compounds of the invention to evaluate the their ability to inhibit growth in MCF-7 (ER+) and MDA-MB-231 (ER−).

Series [2] has as its system MDA-MB-231 (ER−). Put plainly: MTT growth inhibition assay, MDA-MB-231 breast cancer cells. It is filed as cell-based. The method, then:
as §1, §2, §3, §4
(Formazan colour is commonly taken as a measure of viable cells.)

Series [3] is described as follows: in vitro. To be noted: human, Caco-2, pH 7.4. The text has this:
(§5) The Caco-2 human colon adenocarcinoma cell line has become accepted as a predictive model for human intestinal absorption. […] The transport is reported as a permeability coefficient, P(app), which is compared to those of the known standards.

Series [4] concerns Caco-2 human colon adenocarcinoma cell line. Kind of series: Caco-2 intestinal permeability model. To be noted: for Papp: Caco-2, pH 7.4.
Text: as §5

Series [5] deals with human lung tumor cells (A427). Put plainly: Anchorage-independent growth inhibition assay (colony formation in soft agar). Format: cell-based. To be noted: for Expected Colonies: A427 cells, (cells plated)(Surviving Fraction)(Frequency). The method, then:
(§6) An anchorage-independent growth inhibition assay was performed as described in Korytynski, et al. (1996) “The development of an anchorage-independence assay using human lung tumor cells to screen potential chemopreventive agents,” Anticancer Res. 16, 1091–1094; and Sharma, et al. (1997) “The anchorage-independent assay as a screening tool to identify potential chemopreventive agents,” Methods Cell Sci. 19, 9–12. The assay measures the inhibition of colony formation of human lung tumor cells (A427) cells grown in soft agar. In this assay, A427 cells were grown in the presence of the test agent, SR 13196, EGCG or 13-cis-RA Control samples were tested using an equivalent volume of DMSO alone. A concurrent assay for cell survival was also performed.
(§7) Thus, SR 13196 inhibits colony formation of A427 cells in vitro, as well as their survival, and in a dose-dependent manner.

The test system of series [6] is MCF-7 cells. Put plainly: Cell cycle studies in MCF-7 cells. To be noted: 10 μM. It is filed as cell-based. The text has this: To establish that the analogs of EGCG also act via the same mechanisms as EGCG itself, the active analog SR 13196 in cell cycle studies in MCF-7 cells was examined.
The conditions of series [7]: standards of known oral bioavailability; cited from earlier work.
Series [8] relates to A427 cells. Put plainly: Concurrent assay for cell survival. Format: cell-based, human. To be noted: highest concentration tested (25 μM). The method, then:
as §6, §7

Setting [9] is: Homo sapiens, MCF7, 192 h, Table 2 (repeat run with additional compounds), 8 days.
[10] abbreviates: Homo sapiens, MDA-MB-231, 192 h, Table 2 (repeat run with additional compounds), 8 days.
The mark [11] stands for this setting: Homo sapiens, MCF7, 192 h, Table 1, 8 days.
Where [12] appears, read: Homo sapiens, MDA-MB-231, 192 h, Table 1, 8 days.
[13] abbreviates: Table 2 (repeat run with additional compounds), 8 days.

As for `COc1cc(OC)c2c(c1)O[C@H](c1cc(O)c(O)c(O)c1)[C@H](OC(=O)c1cc(C)c(O)c(C)c1)C2` [SR 13200], the IC50 came to 22.9 µM in series [1] (setting [9]) and 22.6 µM in series [2] (setting [10]).

Turning to `Cc1cc(C)c2c(c1)O[C@H](c1cc(O)c(O)c(O)c1)[C@H](OC(=O)c1cc(C)c(O)c(C)c1)C2` [SR 13913], the Papp at 100 μM in series [3] was less than 0.06 ×10⁻⁶ cm/s. This compound also gave an IC50 in series [1] (setting [9]) of 17.2 µM.

With `COc1cc([C@H]2Oc3cc(O)cc(O)c3C[C@H]2OC(=O)c2cc(O)c(O)c(O)c2)cc(OC)c1OC` [SR 13195, cis-5,7-DIHYDROXY-2-(3,4,5-TRIMETHOXY-PHENYL)-3,4-DIHYDRO-2H-CHROMAN-3-YL, 3,4,5-TRIHYDROXY-BENZOIC ACID ESTER], the IC50 in series [1] (setting [11]) and in series [2] (setting [12]) was more than 100 µM each time.

With `O=C(O[C@@H]1Cc2c(O)cc(O)cc2O[C@@H]1c1cc(O)c(O)c(O)c1)c1cc(O)c(O)c(O)c1` [EGCG, (−)-epigallocatechin-3-gallate, reference compound], the “permeability coefficient (Papp), in words” value in series [4] (Caco-2 model, summary of the experiments) is on record as “low permeability coefficient”. Also, the “Expected Colonies” value in series [5] (1.56 μM) was found to be 386; in series [5] (3.12 μM), 382; in series [5] (6.25 μM) it was 378; in series [5] (12.5 μM) it was 331; in series [5] (25 μM), 191. Moreover, the IC50 worked out at 37.1 µM in series [1] (setting [13]) and 36.9 µM in series [2] (setting [13]). Moreover, the “effect on cell cycle” value in series [6] is “arrests the cell cycle in G1”.

`COc1cc([C@H]2Oc3cc(O)cc(O)c3C[C@H]2OC(=O)c2cc(O)c(O)c(O)c2)cc(OC)c1O` [SR 13915] showed a Papp in series [4] of 5.17 ± 0.49 ×10⁻⁶ cm/s. Also, the IC50 in series [1] (setting [13]) and in series [2] (setting [13]) was more than 100 µM throughout.

`Nc1nc(O)c2ncn(COC(CO)CO)c2n1` [Ganciclovir, ganciclovir]: the “% Absorbed (literature value)” value in series [7] is listed as 3%.

Turning to `Cc1cc([C@H]2Oc3cc(O)cc(O)c3C[C@H]2OC(=O)c2cc(O)c(O)c(O)c2)cc(C)c1O` [SR 13918], the IC50 was more than 100 µM in series [1] (setting [13]) and 46.8 µM in series [2] (setting [13]).

`Cc1cc([C@H]2Oc3cc(O)cc(O)c3CC2OC(=O)c2cc(O)c(O)c(O)c2)cc(C)c1O` (stereo partly drawn) [SR 13917]: the IC50 in series [1] (setting [13]) is 6.12 µM; in series [2] (setting [13]), 2.98 µM.

The compound `COc1cc(C(=O)O[C@@H]2Cc3c(C)cc(C)cc3O[C@@H]2c2cc(O)c(O)c(O)c2)cc(OC)c1OC` [SR 13919] gave a Papp in series [4] of less than 0.06 ×10⁻⁶ cm/s. Besides, the IC50 worked out at 8.35 µM in series [1] (setting [13]) and 7.76 µM in series [2] (setting [13]).

Consider `COc1cc(C2Oc3cc(O)cc(O)c3C[C@H]2OC(=O)c2cc(O)c(O)c(O)c2)cc(OC)c1OC` (stereo partly drawn) [SR 13194, trans-5,7-DIHYDROXY-2-(3,4,5-TRIMETHOXY-PHENYL)-3,4-DIHYDRO-2H-CHROMAN-3-YL, 3,4,5-TRIHYDROXY-BENZOIC ACID ESTER], for which the IC50 in series [1] (setting [11]) and in series [2] (setting [12]) was more than 100 µM throughout.

`Cc1cc(C)c2c(c1)OC(c1cc(O)c(O)c(O)c1)[C@H](OC(=O)c1cc(O)c(O)c(O)c1)C2` (stereo partly drawn) [SR 13911] displayed a Papp at 100 μM in series [3] of 1.42 ± 1.6 ×10⁻⁶ cm/s. Moreover, the IC50 was 23.6 µM in series [1] (setting [9]) and 25.7 µM in series [2] (setting [10]).

For `Cc1cc(C)c2c(c1)O[C@H](c1cc(O)c(O)c(O)c1)[C@H](OC(=O)c1cc(O)c(O)c(O)c1)C2` [SR 13912], the 50% inhibitory concentration (IC50) turned out to be 21.8 µM in series [1] (setting [9]) and 53.7 µM in series [2] (setting [10]).

`COc1cc([C@H]2Oc3cc(O)cc(O)c3C[C@H]2OC(=O)c2cc(C)c(O)c(C)c2)cc(OC)c1OC` (relative stereo) [SR 13196] returned a Papp at 100 μM in series [3] of 6.82 ± 0.83 ×10⁻⁶ cm/s. Moreover, in series [5] (A427 cells in soft agar), the “inhibition of colony formation, in words” value was “inhibited colony formation to a much greater extent than either EGCG or 13-cis-RA”. Besides, the “Expected Colonies” value came out at 277 in series [5] (1.56 μM), 160 in series [5] (3.12 μM), 67 in series [5] (6.25 μM) and 52 in series [5] (12.5 μM). This compound gave an inhibition at 1.56 µM in series [5] (Homo sapiens, A-427, A427 cells in soft agar, 1.56 μM) of 4%. For the same compound, in series [5] (Homo sapiens, A-427, A427 cells in soft agar, 3.12 μM), 3.12 µM produced 32% inhibition. The same compound came in with an inhibition at 6.25 µM in series [5] (Homo sapiens, A-427, A427 cells in soft agar, 6.25 μM) of 43%. The compound further came in with an inhibition at 12.5 µM in series [5] (Homo sapiens, A-427, A427 cells in soft agar, 12.5 μM) of 46%. In addition, in series [5] (Homo sapiens, A-427, A427 cells in soft agar, 25 μM), testing at 25 µM gave an inhibition of 81%. The IC50 turned out to be 8.39 µM in series [1] (setting [11]) and 19.6 µM in series [2] (setting [12]). For the same compound, in series [6], the “effect on cell cycle” value is “arrests the cell cycle in G1”.

As for `CN1C(=O)CN=C(c2ccccc2)c2cc(Cl)ccc21` [Diazepam, diazepam], the “% Absorbed (literature value)” value in series [7] is recorded as 100%.

Consider `Cc1cc(C(=O)O[C@@H]2Cc3c(O)cc(O)cc3O[C@@H]2c2cc(C)c(O)c(C)c2)cc(C)c1O` [SR 13916], for which the IC50 in series [1] (setting [13]) came out at 6.61 µM; in series [2] (setting [13]) it was 10.2 µM.

Consider `CC1=C(/C=C/C(C)=C/C=C/C(C)=C\C(=O)O)C(C)(C)CCC1` [Compound 13-cis-RA, reference compound], for which the “Expected Colonies” value was 332 in series [5] (1.56 μM); 320 in series [5] (3.12 μM); 289 in series [5] (6.25 μM); 265 in series [5] (12.5 μM); 254 in series [5] (25 μM). In addition, the surviving cells in series [8] came to 68%.

For the compound `COc1cc(OC)c2c(c1)OC(c1cc(O)c(O)c(O)c1)[C@H](OC(=O)c1cc(O)c(O)c(O)c1)C2` (stereo partly drawn) [SR 13198, trans-5,7-DIMETHOXY-2-(3,4,5-TRIHYDROXY-PHENYL)-3,4-DIHYDRO-2H-CHROMAN-3-YL, 3,4,5-TRIHYDROXY-BENZOIC ACID ESTER], the IC50 in series [1] (setting [9]) amounted to 42.1 µM; in series [2] (setting [10]) it was 35.9 µM.

For `COc1cc([C@H]2Oc3cc(O)cc(O)c3C[C@H]2OC(=O)c2cc(C)c(O)c(C)c2)cc(OC)c1O` [SR 13920], the IC50 in series [1] (setting [13]) came to 33.1 µM; in series [2] (setting [13]), 9.97 µM.
